According to patent US9375436B2, “Androgen treatment in females” (priority 2004, dated 2016):
Entries after “also recorded” stand apart in the source; their conditions may differ.

Tests used:
Type in all cases: in vivo, human
[1] = Case report: DHEA substitution in probable 17,20-desmolase deficiency (Patient B, Example 5); settings: human, in vivo, oral, normal (130-980), read-out: DHEA level
Experimental: In a further study, a case of probable 17, 20-desmolase deficiency, resulting in abnormally low estradiol, DHEA, androstenedione and testosterone levels, is presented in a person with a clinical history of, initially, unexplained infertility and, later, prematurely aging ovaries.
In July of 2003, the patient was started on 25 mg daily of micronized DHEA. After five weeks of treatment, DHEA, DHEA-S and androstenedione levels had normalized into mid-ranges. (Even though androstenedione is partially produced through the activity of 17,20-desmolase from 17-hydroxyprogesterone, part is also derived from DHEA through the activity of 3-beta hydroxysteroid dehydrogenase [Speroff et al., 1999a]. The normalization of androstenedione, after DHEA administration, therefore, also speaks for an underlying 17,20-desmolase defect, and not a 3-beta hydroxysteroid dehydrogenase deficiency.) In the third and fourth month, following the start of DHEA supplementation, the patient ovulated spontaneously with estradiol levels of 268 and 223 pg/ml (Table 2), respectively, measured on the day of LH surge.
On Jan. 28, 2004, and after DHEA therapy of approximately six months, a fourth IVF cycle was initiated. Their baseline FSH level in that cycle was 9.6 mIU/ml, estradiol 56 pg/ml. Stimulation took place with 300 IU of recombinant FSH (without hMG) and with an agonist flare protocol. […] A triplet pregnancy was established with heart beats. Two, out of the three fetuses lost heart beat spontaneously, and the patient delivered by cesarean section, at term, a healthy singleton infant.

[2] = Side effects and complications of DHEA supplementation
Experimental: We maintained in all studies and treatment protocols the oral medication dosage of about 25 mg TID (three times a day for a total of about 75 mg per day), used by our index patient. […] Studies to determine best dosaging of DHEA in the treatment of DOR have so far not been performed.
Ovarian stimulation was identical for study and control groups and comprised microdose agonist flare, followed by maximal dosage gonadotropin stimulation, using about 300-450 IU of FSH and about 150 IU of HMG. Study patients received DHEA continuously until a positive pregnancy test was obtained or until the patient dropped out of treatment. DHEA and DHEAS levels were monitored monthly, and patients were interviewed at each visit about adverse reactions to DHEA supplementation.

[3] = system: women with diminished ovarian reserve; assay: Miscarriage rates in DHEA pregnancies at two centers versus 2004 national US IVF data (Example 8)
Experimental: Based on reported clinical experiences, the indications for DHEA supplementation have changed over the years, with women above age 40 since 2007 receiving routine supplementation, and younger women receiving supplementation only selectively.
DHEA supplementation involves the use of pharmaceutical grade micronized DHEA at a dosage of about 25 mg, three times daily. Patients are on DHEA supplementation for at least about two months prior to oocyte retrieval. This period of minimal pretreatment is based on the recognition that at two months pregnancy curves between DHEA pretreated and control patients statistically diverge. DHEA is maintained until pregnancy is established and is discontinued with positive pregnancy test.
Toronto West Fertility Associates, in Toronto, Canada, started utilizing DHEA independent of the use of DHEA at the Center for Human Reproduction (CHR) in New York, N.Y. In December of 2007, Toronto's medical director forwarded a detailed electronic record of the center's all-inclusive DHEA experience for analysis to CHR. This study, therefore, reports on the miscarriage rate of pregnancies, independently established under DHEA supplementation at both fertility centers, and compares these rates, age-stratified, to miscarriage rates reported in a national IVF data base in the U.S. for the year 2004. The definitions of clinical pregnancy, and of miscarriage, used herein follow the reporting requirements of this national data base, defining a clinical pregnancy as a pregnancy, confirmed by ultrasound examination.
Miscarriage rates of DHEA supplemented patients were compared with national IVF outcome statistics, reported annually under Federal mandate by the Centers for Disease Control. The data utilized for this study reflect 2004 United States national statistics. Pregnancy and miscarriage rates at the two centers were pooled after confirmation of homogeneity of variance. Common odds ratios of the pooled miscarriage rates among age stratified pregnant patients were compared between the pooled rates and the 2004 US national rates utilizing the Mantel-Haenszel common odds ratio. Statistical analyses were performed using SPSS Windows, standard version 15.0.
DHEA supplementation: After approval by the center's institutional review board, the Center for Human Reproduction (CHR) in New York City has been utilizing DHEA supplementation in women with diminished ovarian reserve since 2004. Based on reported clinical experiences, the indications for such supplementation have changed over the years: In initial stages, only older women, above age 42, were supplemented and only if they had failed at least one IVF cycle and less than 4 oocytes had been retrieved in confirmation of ovarian resistance to stimulation. By mid-2005, indications were expanded to all women above age 40 with evidence of ovarian resistance and a history of one failed prior IVF cycle. […] By mid-2006 FSH baseline criteria were changed from absolute FSH elevations to elevations in age-specific FSH levels.
DHEA supplementation in all patients involves oral, pharmaceutical grade micronized medication at a dosage of 25 mg, three times daily (TID). Only morbidly obese women receive an increased daily dosage of 100 mg and no such women were involved in this study. […] Limited patient volume and funding sources have prevented dose response studies and 25 mg DHEA TID daily has, therefore, remained the only standard treatment dosage. Patients receive at least two months of DHEA supplementation prior to oocyte retrieval, unless they conceive spontaneously during that time period. This minimum pretreatment period is based on the recognition that at two months pregnancy curves between DHEA pretreated and control patients statistically diverge. DHEA is maintained until pregnancy, and is discontinued with second positive pregnancy test. […]

SMILES: C[C@]12CC[C@H](O)CC1=CC[C@@H]1[C@@H]2CC[C@]2(C)C(=O)CC[C@@H]12 [DHEA, Dehydroepiandrosterone]
- concentration at 5 months ([1]; 25 mg daily, December 2003, on DHEA): 278 ng/mL
- concentration at 5 weeks ([1]; July 2003 after DHEA treatment start, 25 mg daily micronized): 2.96 ng/mL
- side effects ([2]; oral DHEA about 25 mg TID): small and primarily relate to androgen effects; also recorded: mild transient acne on the face, chest or back, oily skin and mild hair loss; also recorded: appears safe and results in only minor side effects; also recorded: limited to oily skin, rarely mild acne vulgaris and mild hair loss
- complications ([2]; over 1,000 patients supplemented with DHEA): not encountered even a single complication of serious clinical significance
- clinical miscarriage rate, Toronto ([3]; 33 DHEA pregnancies, five miscarriages): 15.2%
- clinical miscarriage rate, New York ([3]; 40 DHEA pregnancies, six miscarriages): 15.0%
- Misc. Rate (%) ([3]; NY, age 35-37): 0.0%
- Miscarriages ([3]; NY, age 35-37, 5 pregnancies): 0
- Misc. Rate (%) ([3]; NY, age 38-40): 0.0%
- Miscarriages ([3]; NY, age 38-40, 6 pregnancies): 0
- Misc. Rate (%) ([3]; NY, age 41-42): 20.0%
- Miscarriages ([3]; NY, age 41-42, 10 pregnancies): 2
- Misc. Rate (%) ([3]; NY, age <35): 10.0%
- Miscarriages ([3]; NY, age <35, 10 pregnancies): 1
- Misc. Rate (%) ([3]; NY, age >42): 33.3%
- Miscarriages ([3]; NY, age >42, 9 pregnancies): 3
- Misc. Rate (%) ([3]; TO, age 35-37): 10.0%
- Miscarriages ([3]; TO, age 35-37, 10 pregnancies): 1
- Misc. Rate (%) ([3]; TO, age 38-40): 23.1%
- Miscarriages ([3]; TO, age 38-40, 13 pregnancies): 3
- Miscarriages ([3]; TO, age 41-42, 0 pregnancies): 0
- Misc. Rate (%) ([3]; TO, age <35): 14.3%
- Miscarriages ([3]; TO, age <35, 7 pregnancies): 1
- Misc. Rate (%) ([3]; TO, age >42): 0.0%
- Miscarriages ([3]; TO, age >42, 3 pregnancies): 0
- Misc. Rate (%) ([3]; TOTAL both centers, age 35-37): 6.7%
- Misc. Rate (%) ([3]; TOTAL both centers, age 38-40): 15.8%
- Misc. Rate (%) ([3]; TOTAL both centers, age 41-42): 20.0%
- Misc. Rate (%) ([3]; TOTAL both centers, age <35): 11.8%
- Misc. Rate (%) ([3]; TOTAL both centers, age >42): 25.0%
- reduction in miscarriage risk ([3]; first statistical model (age-stratified odds ratio)): approximately 50%
- decline in miscarriages, depending on statistical method ([3]; versus national US IVF pregnancies): 50-80%
